“Also recorded” adds a separate entry of the source.
Columns and labels:
human recombinant PHGDH = target: T1, human recombinant PHGDH (Homo sapiens, UniProt O43175); assay: PHGDH enzyme activity, colorimetric PHGDH activity kit (absorbance at 450 nm, NADH generated)
T1 sequence (O43175 1-533): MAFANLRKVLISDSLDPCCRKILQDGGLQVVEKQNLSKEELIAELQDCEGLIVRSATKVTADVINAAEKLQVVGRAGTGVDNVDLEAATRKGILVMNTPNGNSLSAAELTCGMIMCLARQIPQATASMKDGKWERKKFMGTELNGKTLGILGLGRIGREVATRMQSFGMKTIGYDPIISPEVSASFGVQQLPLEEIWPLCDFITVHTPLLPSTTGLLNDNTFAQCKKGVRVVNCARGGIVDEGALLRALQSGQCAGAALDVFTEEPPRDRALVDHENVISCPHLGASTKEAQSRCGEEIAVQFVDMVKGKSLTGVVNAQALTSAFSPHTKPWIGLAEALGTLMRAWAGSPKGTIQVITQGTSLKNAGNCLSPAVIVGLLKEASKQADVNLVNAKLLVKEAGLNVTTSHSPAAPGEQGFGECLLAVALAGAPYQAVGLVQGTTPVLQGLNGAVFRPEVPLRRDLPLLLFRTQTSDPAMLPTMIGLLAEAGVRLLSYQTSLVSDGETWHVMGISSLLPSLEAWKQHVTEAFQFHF
Method: As a readout, absorbance at 450 nm, indicative for the amount of NADH generated, was measured over time.

[1] = tested on: pilocarpine-induced seizures; conditions: rats, preventive treatment 3 days prior to pilocarpine injection; Ahmed (2014); cited from earlier work
[2] = tested on: EKP-induced seizures in zebrafish larvae; assay: Zebrafish EKP-induced seizure model, locomotor activity tracking; assay type: in vivo; conditions: 8.5 μM, 2 h pre-incubation, 300 μM EKP, 7 dpf larvae, 30 min recording; ****p<0.0001
Method: FIG. 2. Activity profile of 8.5 μM idebenone after 300 μM EKP exposure. Locomotor activity was quantified using ZebraLab™ software (Viewpoint, Lyon, France) and expressed in mean “actinteg” units per 5-min+/−SEM during a 30 min recording interval as indicated above. Statistical analysis: one-way ANOVA with Dunnett's multiple comparison test. A statistical difference is indicated by: ****p<0.0001. For each condition n=10 larvae were used and the experiment was performed three times (n total=30 per condition).
The EKP-induced epilepsy zebrafish model is a suitable model to investigate drug resistant epilepsy. Ethyl ketopentenoate (EKP) is a lipid-permeable GAD-inhibitor that results in […] and drug resistant seizures in zebrafish [Zhang et al. (2017) Sci Rep. 7, 7195]. […]
Larvae (7dpf) in 100 μl VHC were arrayed individually in a 96-well plate (tissue culture plate, at bottom, Falcon, USA) and kept in the light at 28° C. […] The plates were placed in an automated video tracking device (ZebraBox™ apparatus; Viewpoint, Lyon, France) and the locomotor behaviour of the larvae was monitored for […] in the dark at 28° C. Locomotor activity was quantified using ZebraLab™ software (Viewpoint, Lyon, France) and expressed in “actinteg” units per 5-min interval. […] The actinteg value is defined as the sum of all image pixel changes detected during the time window.

[3] = tested on: Arginase 1 expression (microglia/macrophage M2 marker); assay: Temporal lobe epilepsy model (SSSE), Arginase-1 expression by real-time quantitative PCR of brain tissue; assay type: in vivo, C57bl/6 mice; conditions: 100 mg/kg twice daily i.p. for one week, vs vehicle control; p=0.017; two-way ANOVA (FIG. 5)
Method: The present example investigates whether Idebenone has the potential to modulate neuroinflammation from an M1 to M2 phenotype. […] (control animals received vehicle injections for one week). Idebenone was suspended in 5% dimethyl sulfoxide and 20% Kolliphor RH40 in 0.01M PBS. Expression of the major marker for M2 polarization, Arginase-1, was assessed via real-time quantitative PCR upon brain tissue processing. Two-way ANOVA analysis was performed to evaluate the effect of two factors including the treatment and the SSSE [self-sustained Electrical Status Epilepticus], and any interaction of the two factors.

[4] = tested on: EKP-induced epileptiform activity in zebrafish; assay: Zebrafish EKP-induced seizure model, LFP recordings; assay type: in vivo
Method: FIG. 3. Representative LFP recordings of zebrafish in the absence (VHC) or presence of EKP, treated with 8.5-4.3 μM idebenone or untreated (VHC), in the presence or absence of a specific PHGDH inhibitor CBR-5884 [Mullarky et al. (2016) Proc Natl Acad Sci USA 113, 1778-1783].
FIG. 4: Normalized PSD per larvae for the different conditions. Number of epileptic events within a 10-min recording (mean±SEM.). Number of recordings analysed were: VHC (n=9), EKP (n=15), 8.5 μM idebenone (Ide) (n=10), 4.3 μM idebenone (n=10), 4.3 μM idebenone+inhibitor (n=9). PHGDH-inhibitor CBR-5884 was used. Statistical differences as compared to the EKP-only treated larvae were assessed by the following statistical analysis: one-way ANOVA with Dunnett's multiple comparison test. A statistical difference is indicated by: **p<0.01, ***p<0.001 and ****p<0.0001.ns=not significant.
Common to all epilepsies, seizures occur due to an abnormal, excessive and synchronous activity of large neuronal populations. As such, seizures can be observed on electrophysiological recordings such as invasive or non-invasive local field potential (LFP) measurements, being a counterpart of electroencephalogram (EEG) performed in humans. Indeed, these techniques serve as a gold standard for epilepsy diagnosis. […]

[5] = mouse, in vivo; cited from earlier work
[6] = tested on: EKP-induced epileptiform activity in zebrafish; conditions: 1 μM; Zhang et al. (2017); cited from earlier work

## COC1=C(OC)C(=O)C(CCCCCCCCCCO)=C(C)C1=O [Idebenone, 6-(10-hydroxydecyl)-2,3-dimethoxy-5-methyl-1,4-benzoquinone]
Human recombinant PHGDH
  effect on the oxido-reduction reaction toward NADH generation (compound itself): does not affect the oxido-reduction reaction toward NADH generation
Human recombinant PHGDH; 25 µM idebenone, over time, DMSO 0.5% (FIG. 1)
  PHGDH enzyme activity: induces increased enzyme activity of PHGDH
[1]
  neuroprotection in pilocarpine-induced seizure model: provides neuroprotection
[2]
  EKP-induced seizures assessed as locomotor movement (actinteg units per 5-min): significantly reduced EKP-induced seizures
[3]
  expression of M2 marker Arginase 1: increases the expression; also recorded: significant increase
[4]; 8.5-4.3 μM, 10-min recording
  EKP-induced epileptiform activity, LFP recordings: significantly reduced EKP-induced epileptiform activity
[5]
  LD50: exceeds 10,000 mg/kg

## N#Cc1ccccc1-c1cc(-c2ccccn2)cn(-c2ccccc2)c1=O [Perampanel]
[6]
  anti-seizure activity in the EKP model: anti-seizure activity

## CBR-5884
Human recombinant PHGDH; co-administration with idebenone
  blocking of idebenone-induced increased PHGDH activity: can be blocked by co-administration
[4]; co-administration with idebenone (4.3 μM)
  blocking of the anti-seizure activity of idebenone: could be blocked by co-administration

Reference: US20240269091A1, “IDEBENONE IN THE TREATMENT OF DRUG RESISTANT EPILEPSY” (Katholieke Universiteit Leuven, priority 2021, published 2024)
